According to the supplement of paper PMC10307832:

Columns and labels:
Experiment in all cases: relative viability (nuclei count vs DMSO), 5 days (fraction); higher = more cells survive
[1] = compound: C#Cc1cccc(Nc2ncnc3cc(OCCOC)c(OCCOC)cc23)c1 [Erlotinib] + CC(C)C[C@H](NC(=O)[C@H](Cc1ccccc1)NC(=O)c1cnccn1)B(O)O [Bortezomib] (partner 0.002 µM)
How it was run: (§1)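 The day after seeding in 1536-well plates, lung cancer cell lines were treated by pin tool with a single drug, or with a fixed anchor-drug dose together with five library-drug doses (not always all listed) in √10 steps. After 5 days, a combined fix-and-stain solution (final 0.05% Triton X-100, 1% formaldehyde, 1 ug/ml Hoechst) was added. Nuclei counted on 4× images gave relative viability as treated counts over vehicle counts, reported as the median of duplicate plates.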

[2] = compound: O=C(Nc1c[nH]nc1-c1nc2ccc(CN3CCOCC3)cc2[nH]1)NC1CC1 [AT9283] + CC(C)C[C@H](NC(=O)[C@H](Cc1ccccc1)NC(=O)c1cnccn1)B(O)O [Bortezomib] (partner 0.002 µM)
How it was run: as §1

[3] = compound: O=C(Nc1c[nH]nc1-c1nc2ccc(CN3CCOCC3)cc2[nH]1)NC1CC1 [AT9283] + CCNC(=O)c1noc(-c2cc(C(C)C)c(O)cc2O)c1-c1ccc(CN2CCOCC2)cc1 [Luminespib] (partner 0.01 µM)
How it was run: as §1

[4] = compound: O=C(Nc1c[nH]nc1-c1nc2ccc(CN3CCOCC3)cc2[nH]1)NC1CC1 [AT9283] + COc1cc2c(Oc3ccc(NC(=O)C4(C(=O)Nc5ccc(F)cc5)CC4)cc3F)ccnc2cc1OCCCN1CCOCC1 [Foretinib] (partner 0.25 µM)
How it was run: as §1

[5] = compound: O=C(Nc1c[nH]nc1-c1nc2ccc(CN3CCOCC3)cc2[nH]1)NC1CC1 [AT9283] + Cc1nc(Nc2ncc(C(=O)Nc3c(C)cccc3Cl)s2)cc(N2CCN(CCO)CC2)n1 [Dasatinib] (partner 0.075 µM)
How it was run: as §1

| Cell Line | relative viability ([1]; first compound 0.02 µM) | relative viability ([1]; first compound 0.6325 µM) | relative viability ([1]; first compound 2 µM) | relative viability ([2]; first compound 0.003 µM) | relative viability ([2]; first compound 0.03 µM) | relative viability ([2]; first compound 0.09487 µM) | relative viability ([2]; first compound 0.3 µM) | relative viability ([3]; first compound 0.003 µM) | relative viability ([3]; first compound 0.03 µM) | relative viability ([3]; first compound 0.09487 µM) | relative viability ([3]; first compound 0.3 µM) | relative viability ([1]; first compound 0.2 µM) | relative viability ([4]; first compound 0.003 µM) | relative viability ([4]; first compound 0.03 µM) | relative viability ([4]; first compound 0.09487 µM) | relative viability ([4]; first compound 0.3 µM) | relative viability ([5]; first compound 0.003 µM) | relative viability ([5]; first compound 0.03 µM) | relative viability ([5]; first compound 0.09487 µM) | relative viability ([5]; first compound 0.3 µM) |
| --- | --- | --- | --- | --- | --- | --- | --- | --- | --- | --- | --- | --- | --- | --- | --- | --- | --- | --- | --- | --- |
| HCC-44 | 0.99 | 0.982 | 0.899 | 0.814 | 0.833 | 0.548 | 0.399 | 1.04 | 1.19 | 0.426 | 0.319 | – | – | – | – | – | – | – | – | – |
| HCC-78 | 0.452 | 0.496 | 0.302 | 0.425 | 0.472 | 0.237 | 0.245 | – | – | – | – | 0.333 | 0.5 | 0.485 | 0.331 | 0.305 | 0.291 | 0.322 | 0.201 | 0.216 |
| HCC-366 | – | 1.1 | 1.06 | 1.02 | 0.921 | 0.129 | 0.0684 | – | – | – | – | 1.08 | 0.962 | 0.881 | 0.0841 | 0.0697 | 0.619 | 0.566 | 0.104 | 0.053 |
| HCC-827 | 0.526 | 0.276 | 0.35 | 1.03 | 0.678 | 0.747 | 0.568 | 0.608 | 0.539 | 0.328 | 0.185 | 0.343 | 1.05 | 0.745 | 0.331 | 0.244 | 0.271 | 0.266 | 0.26 | 0.205 |
| HOP-62 | 1.08 | 0.316 | 1.02 | 0.593 | 0.651 | 0.68 | 0.158 | 0.916 | 0.783 | 0.279 | 0.292 | 0.5 | 1.12 | 0.667 | 0.324 | 0.321 | 0.666 | 0.58 | 0.295 | 0.186 |
| IA-LM | 0.833 | 0.977 | 0.86 | 0.748 | 0.367 | 0.112 | 0.0951 | – | – | – | – | – | 1.21 | 0.391 | 0.105 | 0.0774 | – | – | – | – |
| LC-2-ad | 1.02 | – | 0.868 | 1.08 | 0.509 | 0.233 | 0.108 | 0.918 | 0.594 | 0.357 | 0.263 | 1.02 | 0.881 | 0.71 | 0.336 | 0.225 | 0.456 | 0.291 | 0.177 | 0.187 |
| LCLC-97TM1 | 0.528 | 0.529 | 0.464 | 0.49 | 0.09 | 0.139 | 0.0748 | 0.662 | 0.634 | 0.137 | 0.157 | 0.747 | 0.938 | 0.49 | 0.163 | 0.176 | 0.798 | 0.492 | 0.255 | 0.162 |
| LK-2 | – | – | – | – | – | – | – | 0.195 | 0.19 | 0.176 | 0.206 | – | 0.965 | 0.31 | 0.159 | 0.129 | 0.228 | 0.197 | 0.135 | 0.142 |
| NCI-H358 | – | – | – | – | – | – | – | 0.4 | 0.147 | 0.166 | 0.129 | – | 0.653 | 0.155 | 0.0898 | 0.0981 | 0.147 | 0.1 | 0.0732 | 0.0691 |
| NCI-H522 | – | – | – | – | – | – | – | 1.14 | 0.99 | 0.467 | 0.51 | – | – | – | – | – | 0.66 | 0.678 | 0.583 | 0.476 |
| NCI-H1299 | 1.11 | 0.997 | 1 | 1.07 | 1.02 | 0.437 | 0.395 | – | – | – | – | 1.05 | 1.13 | 0.541 | 0.415 | 0.373 | – | – | – | – |
| NCI-H1395 | – | – | – | – | – | – | – | 0.639 | 0.649 | 0.397 | 0.418 | – | 0.729 | 0.88 | 0.465 | 0.397 | 0.434 | 0.424 | 0.292 | 0.287 |
| NCI-H1623 | – | – | – | – | – | – | – | 0.466 | 0.559 | 0.437 | 0.37 | – | 0.91 | 0.837 | 0.612 | 0.487 | 0.567 | 0.51 | 0.615 | 0.324 |
| NCI-H1703 | 0.296 | 0.409 | 0.238 | 0.452 | 0.196 | 0.141 | 0.169 | – | – | – | – | 0.346 | 0.335 | 0.254 | 0.273 | 0.228 | – | – | – | – |
| NCI-H1792 | 0.897 | 1.18 | 0.783 | 0.918 | 0.985 | 0.961 | 0.701 | 0.264 | 0.454 | 0.382 | 0.229 | 0.958 | – | – | – | – | 0.894 | 0.886 | 0.748 | 0.538 |
| NCI-H1793 | – | – | – | – | – | – | – | 0.194 | 0.184 | 0.179 | 0.136 | – | 0.729 | 0.484 | 0.256 | 0.219 | 0.405 | 0.39 | 0.256 | 0.138 |
| NCI-H1944 | – | – | – | – | – | – | – | 0.778 | 0.483 | 0.195 | 0.205 | – | 0.821 | 0.373 | 0.267 | 0.254 | 0.199 | 0.178 | 0.116 | 0.111 |
| NCI-H2170 | – | – | – | – | – | – | – | 0.821 | 0.574 | 0.509 | 0.176 | – | 1.06 | 0.897 | 0.261 | 0.21 | 0.446 | 0.427 | 0.16 | 0.133 |
| NCI-H2342 | – | – | – | – | – | – | – | 0.795 | 0.93 | 0.499 | 0.348 | – | 1.2 | 1.01 | 0.547 | 0.367 | 0.295 | 0.292 | 0.289 | 0.27 |
| SK-MES-1 | – | – | – | – | – | – | – | 0.885 | 0.821 | 0.405 | 0.22 | – | 0.924 | 0.863 | 0.604 | 0.143 | 0.56 | 0.25 | 0.0729 | 0.0952 |
| SW 900 | – | – | – | – | – | – | – | 0.178 | 0.19 | 0.172 | 0.171 | – | 1.1 | 0.898 | 0.866 | 0.366 | 0.652 | 0.533 | 0.438 | 0.385 |
